The test has as its system HT-29 cells (human colon carcinoma cell line). As to the kind of experiment: MTT tetrazolium dye proliferation assay on HT-29 cells. It counts as cell-based. To be noted: MTT assay after 5 days of compound exposure, 30 uM to 1.5 nM, read-out: IC50 HT29. The procedure: MTT (tetrazolium dye proliferation assay) is widely used for the quantitative determination of cytotoxic effects or in vitro chemosensitivity of tumor cells. The assay is based on the cleavage of the yellow tetrazolium salt MTT to purple formazan crystals by metabolic active cells. For details, see Rubinstein, L. V., et al., J. Natl. Cancer Inst. 82 (1990) 1113-1118.
The following procedure was performed: HT-29 cells (human colon carcinoma cell line) were cultivated in RPMI 1640, 2.5% FCS, 2 mM Glutamine, 100 u/ml Penicillin, 100 ug/ml Streptomycin. For the assay the cells were seeded in 384 well plates, 900 cells per well, in the same medium The next day compounds (dissolved 10 mM in DMSO) were added in various concentrations ranging from 30 uM to 1.5 nM. After 5 days the MTT assay was done mainly according to the instructions of the manufacturer (Cell proliferation kit I, MTT, form Roche Molecular Biochemicals). In brief: MTT labeling reagent was added to a final concentration of 0.5 mg/ml, added and incubated for 4 hrs at 37 C., 5% CO2. During this incubation time purple formazan crystals are formed. After addition of the solubilization solution (20% SDS in 0.02 M HCl) the plates were incubated overnight at 37 C, 5% CO2. After careful mixing plates were measured in Victor 2 (scanning multiwell spectrophotometer, Wallac) at 550 nm.
A decrease in number of living cells results in a decrease in the total metabolic activity in the sample. The decrease directly correlates to the amount of purple colour resulting from the solubilization of the purple formazan crystals. Determination of IC50 was done using XL-fit.
As for `O=C(NO)c1ccc(C(=O)NCc2ccc(C(F)(F)F)cc2)s1` [Example 2, Thiophene-2,5-dicarboxylic acid 2-hydroxyamide 5-(4-trifluoromethyl-benzylamide)], the half-maximal inhibitory concentration (IC50) (commonly the concentration at which inhibition is half-maximal) is 110 nM. For `O=C(NO)c1ccc(C(=O)NCc2cccc(Cl)c2)s1` [Example 4, Thiophene-2,5-dicarboxylic acid 2-(3-chloro-benzylamide) 5-hydroxyamide] the value was 140 nM. With `Cc1cc(C)cc(CNC(=O)c2ccc(C(=O)NO)s2)c1` [Example 5, Thiophene-2,5-dicarboxylic acid 2-(3,5-dimethyl-benzylamide) 5-hydroxyamide] the figure was 50 nM. With `CC(C)CCCC(C)NC(=O)c1ccc(C(=O)NO)s1` (centres unmarked) [Example 15, No. 81, thiophene-2,5-dicarboxylic acid 2-[(1,5-dimethyl-hexyl)-amide] 5-hydroxyamide] the figure was 30 nM; with `O=C(NO)c1ccc(C(=O)NCCC(c2ccccc2)c2ccccc2)s1` [Example 15, No. 90, thiophene-2,5-dicarboxylic acid 2-[(3,3-diphenyl-propyl)-amide] 5-hydroxyamide], 140 nM. As for `O=C(NO)c1ccc(C(=O)NCc2cc(C(F)(F)F)cc(C(F)(F)F)c2)s1` [Example 15, No. 93, Thiophene-2,5-dicarboxylic acid 2-(3,5-bis-trifluoromethyl-benzylamide) 5-hydroxyamide], the IC50 is 50 nM.

With `O=C(NO)c1ccc(C(=O)NCc2cccc(Br)c2)s1` [Example 15, No. 94, Thiophene-2,5-dicarboxylic acid 2-(3-bromo-benzylamide) 5-hydroxyamide], the half-inhibitory concentration (IC50) came out at 70 nM. With `CC(C)(C)c1ccc(CNC(=O)c2ccc(C(=O)NO)s2)cc1` [Example 15, No. 98, Thiophene-2,5-dicarboxylic acid 2-(4-tert-butyl-benzylamide) 5-hydroxyamide] the figure was 70 nM. With `O=C(NO)c1ccc(C(=O)NCCOc2ccccc2)s1` [Example 15, No. 104, Thiophene-2,5-dicarboxylic acid 2-hydroxyamide 5-[(2-phenoxy-ethyl)-amide]] the figure was 40 nM; with `CC(CCc1ccccc1)NC(=O)c1ccc(C(=O)NO)s1` (centres unmarked) [Example 15, No. 128, Thiophene-2,5-dicarboxylic acid 2-hydroxyamide 5-[(1-methyl-3-phenyl-propyl)-amide]], 20 nM. `O=C(NO)c1ccc(C(=O)NCc2ccc(Cl)c(Cl)c2)s1` [Example 15, No. 139, Thiophene-2,5-dicarboxylic acid 2-(3,4-dichloro-benzylamide) 5-hydroxyamide]: the IC50 was 170 nM.
